SMILES	logP
NC(=O)CCCCCn1nnc2ccccc21	0.79
Clc1ccc(N=C2NCCN2)c(Cl)c1	1.96
CCc1cc(C(=O)NN)ccn1	0.12
Cc1ccccc1C1=NCC(=O)N(C)c2ccc(Cl)cc21	3.03
CC(=O)Nc1cc(OCC(=O)O)ccc1Cl	0.75
CN(C)C(=O)c1ccoc1	0.24
CCCCOc1cc(Cc2cnc(N)nc2N)c(C)cc1OC	2.78
O=C(c1ccncc1)c1ccccc1O	2.13
CCOP(=O)(OCC)Oc1ccc(SC)cc1	2.79
CCCNc1ccc(C(=O)OCCN(C)C)cc1	3.15
CC(C)c1ccc(C(O)C(CO)NC(=O)C(Cl)Cl)cc1 (centres undefined)	2.24
C#CC(C)(C)N(C)C(C)C	2.29
CCOC(=O)C(=Cc1ccc(Cl)cc1)C(=O)OCC	3.96
CSc1nncc(=O)n1N	0.38
N#Cc1ccc([N+](=O)[O-])n1CCO	0.6
CC1CN(N=O)CCN1N=O (centres undefined)	-0.28
COc1ccc(Cc2ccccc2C(N)=O)cc1	1.63
CCOP(=O)(OCC)Oc1c(Cl)cc(SC)cc1Cl	3.72
NS(=O)(=O)c1cccc(OC(=O)CNC(=O)c2ccccc2)c1	0.84
S=C=Nc1ccc2cc3ccccc3cc2c1	5.7
CC(=O)Nc1cc2c(cc1Cl)S(=O)(=O)NC(C)=N2	0.53
Cc1cccc(N=NN(C)C)c1	2.85

SMILES	logP
COC(=O)C(C#N)=NNc1ccc(Cl)cc1C	4.3
COc1cc(S(=O)(=O)CCN2CCCCC2)cc(OC)c1OC	1.6
Nc1nc(N)nc(-c2cc(Cl)ccc2Br)n1	1.85
Cc1ccc(CN(C)N=Nc2ccc(C(=O)O)cc2)cc1	4.75
COc1cc(S(=O)(=O)CCC(C)C)cc(OC)c1OC	2.12
Cc1cnc2ccccn2c1=O	0.77
COP(=O)(NC(C)(C)C)Oc1cc(Cl)c(Cl)cc1Cl (centres undefined)	3.83
CCOP(=O)(OCC)Oc1ccc(SC)c(Cl)c1	2.94
COc1ccc(OC2OC(CO)C(O)C(O)C2O)cc1 (centres undefined)	-0.73
COc1ccc(Cc2cnc(N)nc2N)cc1Cl	1.65
CC(=O)N(CCO)c1c(I)c(C(=O)NCC(O)CO)c(I)c(C(=O)NCC(O)CO)c1I (centres undefined)	-2.47
COC(=O)C(C#N)=NNc1ccc(Cl)c(C(F)F)c1	3.8
CN(C)N=[N+]([O-])c1ccccc1	1.8
COP(=O)(Oc1cc(Cl)c(Br)cc1Cl)c1ccccc1 (centres undefined)	4.58
COc1cc(-n2c(C)cc(=O)n2C)nc(C)n1	0.38
CCCCCCCCCCCC[n+]1ccccc1C.[I-]	1.32
Cc1cc(-n2[nH]c(C)cc2=O)nc(C)n1	0.89
CNc1ccc(S(N)(=O)=O)cc1	0.08
OCC1OC(Oc2ccccc2I)C(O)C(O)C1O (centres undefined)	0.27
CCc1cccc(CC)c1NC1=NCCN1	2.48
COc1cccc(OC2OC(CO)C(O)C(O)C2O)c1 (centres undefined)	-0.52
CCC(C)C(NC(C)=O)C(N)=O (centres undefined)	-0.03

SMILES	logP
O=C1CCCN1Cc1ccccc1	1.25
CCCC(=O)NC(=O)NC(=O)CCC	1.4
CNC(=O)O/N=C/C(C)(C)S(C)(=O)=O	-0.57
Cc1ccccc1C(=N)c1ccccc1	3.21
O=C(O)Cc1ccc(OCc2ccccc2)c(Br)c1	3.51
CCOC(=O)C(=Cc1cccc(Cl)c1)C(=O)OCC	3.49
CS(=O)(=O)c1cnc2ccccc2n1	0.79
O=[N+]([O-])C=Cc1cc([N+](=O)[O-])ccc1Cl	2.23
Cc1cccc(NC(=O)CN2CCCCC2)c1	2.97
CCCCCCCCCCCCCCCC[n+]1ccc(C)c(C)c1.[I-]	3.16
O=S(=O)(Nc1ccc(Cl)cc1Cl)C(F)(F)F	3.88
COc1cc(Cc2cnc(N)nc2N)ccc1N	0.49
CCCCCC1(CC)C(=O)NC(=O)N(C)C1=O (centres undefined)	2.45
CCc1n[nH]c(=O)[nH]c1=O	0.22
CCCCCCCCCCCC[n+]1cc(C)cc(C)c1.[I-]	1.91
O=NN(CCF)C(=O)NC1CCSCC1	1.43
O=C(CN1CCCCC1)Nc1ccc([N+](=O)[O-])cc1	2.72
CCCCCCNC(=O)CNC(=O)C=[N+]=[N-]	1.51
CC1=NS(=O)(=O)c2c(Cl)cccc2N1	0.62
O=[N+]([O-])c1nccn1CCS(=O)(=O)c1ccccc1	0.52
COc1ccccc1C(=O)NCCN	0
O=S(=O)(Nc1ccc(C(F)(F)F)cc1)C(F)(F)F	4.47

SMILES	logP
CCCCNc1nnc(C(C)C)c(=O)n1N	1.78
CCCCCCCCCCCCCC[n+]1ccccc1C.[I-]	2.27
CC1COCCN1N=O (centres undefined)	-0.03
CCOC(=O)CCN1C(=O)C=CC1=O	0.41
CCCCC1OC(=O)c2cc(NC(C)=O)ccc21 (centres undefined)	2.77
COC1C(Cl)C(Cl)C(OC)C(Cl)C1Cl (centres undefined)	3.15
CN(C)CCC=C1c2ccccc2CCc2c(Cl)cccc21	5.55
CN1C(=N)SC(=Cc2ccc([N+](=O)[O-])o2)C1=O	1.44
CNC1=NC(=O)C(=Cc2ccc([N+](=O)[O-])o2)S1	1.16
CC1=Nc2ccc(S(=O)(=O)N(C)C)cc2S(=O)(=O)N1	0.32
NC(=O)CCn1nnc2ccccc21	0.27
O=C(Cn1ccnc1[N+](=O)[O-])NCCO	-1.34
O=C1CN=C(c2ccccc2F)c2cc([N+](=O)[O-])ccc2N1	2.15
Clc1cccc(C2NCCS2)c1 (centres undefined)	2.04
CSC(C)=NOC(=O)N(C)SN(C)C(=O)N(C)C	1.2
O=[N+]([O-])c1cccc(OC2OC(CO)C(O)C(O)C2O)c1 (centres undefined)	-0.51
COc1cc(-n2nc(C)cc2OC)nc(C)n1	1.54
CC(C)(C)C(=O)C(C#N)=NNc1cc(Cl)c(Cl)cc1Cl	5.86
C=C(C)C(=O)OC(C)C	2.25
CCOC(=O)C(=Cc1ccc(OC)c(OC)c1)C(C)=O	2.02
CC(N)Cc1ccc2c(c1)OCO2 (centres undefined)	1.64
COc1ccc(N2C(N)=NC(N)=NC2(C)C)cc1	0.4

SMILES	logP
COc1ccc(C=C[N+](=O)[O-])cc1	2.2
CN(C)C(=O)c1cnc2ccccc2c1	0.99
NNC(=O)c1ccc(O)cc1	-0.33
COC1=C(C)C(=O)c2ccccc2C1=O	2.14
Nc1ccc(OC2OC(CO)C(O)C(O)C2O)cc1 (centres undefined)	-2.67
OCC1OC(SCCCc2ccccc2)C(O)C(O)C1O (centres undefined)	0.38
CSc1nnc(C2CCCCO2)c(=O)n1N (centres undefined)	0.38
CON=CCCc1ccccc1	2.14
COC(=O)C(C#N)=NNc1cccc(C(F)(F)F)c1	3.78
Clc1ccc(-c2cc(Cl)ccc2Cl)cc1	5.69
C[N+](C)(C)Cc1cccc(N)c1.[Br-]	-2.5
CCc1ccc(N=NN(C)C(C)=O)cc1	3.36
COP(=O)(NCC(C)C)SC (centres undefined)	0.97
CCC(=O)Nc1n[nH]c(NC(=O)CC)n1	0.07
CNC(=O)NCCSCc1[nH]cnc1C	-0.06
Cn1c(=O)nc(-c2ccccc2)c2ccccc21	1.79
CCCCCCCC[n+]1ccccc1C.[I-]	-0.77
COc1cc(OC)c(OC)cc1Cc1cnc(N)nc1N	1.17
CCC1=Nc2cc(Cl)ccc2S(=O)(=O)N1	1.61
CC(C)(C)CC1=Nc2ccc(Cl)cc2S(=O)(=O)N1	2.71
COC(=O)C(C#N)=NNc1ccc(Cl)cc1C(F)(F)F	4.66
